HELM strings list units from the 5' end as sugar, base in round brackets, then linkage (d deoxyribose, r ribose, m 2'-O-methyl, p phosphodiester). Strings are as the collection lists them; they lack the last nucleoside at the 3' end of the tested compound. [moe] = 2'-O-(2-methoxyethyl) (MOE); [sp] = phosphorothioate linkage; [m5C] = 5-methylcytosine

The values that follow come from the OligoGym collection.

For the data set, the target named is PRNP. Nature of the data set: mouse, dose not given. Particulars: ASO.

On to “RNA1{[moe](G)[sp].[moe]([m5C])p.[moe](T)p.[moe](T)p.[moe](A)p.[moe](T)p.d(T)[sp].d(A)[sp].d(T)[sp].d(T)[sp].d([m5C])[sp].d(A)[sp].d(T)[sp].d(G)[sp].d(T)[sp].d(T)[sp].[moe]([m5C])p.[moe](T)[sp].[moe]([m5C])}$$$$ (last 3' nucleoside missing)”, for which the 3 h FOB score is 1.75 score 0-7.

The substance “RNA1{[moe](A)[sp].[moe]([m5C])p.[moe](T)p.[moe]([m5C])p.[moe](T)p.d(A)[sp].d(T)[sp].d(G)[sp].d(T)[sp].d(T)[sp].d(T)[sp].d(T)[sp].d([m5C])[sp].d([m5C])[sp].[moe](A)[sp].[moe](G)p.[moe](T)p.[moe](G)}$$$$ (last 3' nucleoside missing)” returned a 3 h FOB score of 2.25 score 0-7. The same measure for “RNA1{[moe](T)[sp].[moe]([m5C])p.[moe](T)p.[moe](A)p.[moe](T)p.d(G)[sp].d(T)[sp].d(T)[sp].d(T)[sp].d(T)[sp].d([m5C])[sp].d([m5C])[sp].d(A)[sp].d(G)[sp].[moe](T)p.[moe](G)p.[moe]([m5C])[sp].[moe]([m5C])}$$$$ (last 3' nucleoside missing)”: 0 score 0-7. “RNA1{[moe](G)[sp].[moe](T)p.[moe](T)p.[moe](G)p.[moe](A)[sp].d(T)[sp].d(T)[sp].d(T)[sp].d(T)[sp].d(T)[sp].d([m5C])[sp].d([m5C])[sp].d(A)[sp].d(G)[sp].d(A)[sp].[moe](A)p.[moe](G)p.[moe](T)[sp].[moe](T)}$$$$ (last 3' nucleoside missing)”: the 3 h FOB score turned out to be 3.25 score 0-7.

With “RNA1{[moe](T)[sp].[moe](G)p.[moe](G)p.[moe](T)p.[moe](G)[sp].d(T)[sp].d(T)[sp].d(A)[sp].d(T)[sp].d(A)[sp].d([m5C])[sp].d(A)[sp].d(T)[sp].d(T)[sp].d(T)[sp].[moe](A)p.[moe](G)p.[moe](G)[sp].[moe]([m5C])}$$$$ (last 3' nucleoside missing)”, the 3 h FOB score came out at 1 score 0-7.

“RNA1{[moe]([m5C])[sp].[moe](T)p.[moe](G)p.[moe](T)p.[moe](T)[sp].d(G)[sp].d([m5C])[sp].d(A)[sp].d([m5C])[sp].d(T)[sp].d(A)[sp].d(A)[sp].d(G)[sp].d(T)[sp].d([m5C])[sp].[moe]([m5C])p.[moe](A)p.[moe](A)[sp].[moe](A)}$$$$ (last 3' nucleoside missing)” yielded a 3 h FOB score of 1 score 0-7.

“RNA1{[moe](T)[sp].[moe](G)p.[moe](T)p.[moe](G)p.[moe](T)[sp].d([m5C])[sp].d(A)[sp].d(T)[sp].d(A)[sp].d(A)[sp].d(T)[sp].d(T)[sp].d(T)[sp].d(T)[sp].d([m5C])[sp].[moe](T)p.[moe](T)p.[moe](A)[sp].[moe](G)}$$$$ (last 3' nucleoside missing)” registered a 3 h FOB score of 1 score 0-7. The same measure for “RNA1{[moe]([m5C])[sp].[moe](A)p.[moe](A)p.[moe](T)p.[moe](T)[sp].d(G)[sp].d(T)[sp].d(T)[sp].d(T)[sp].d(T)[sp].d(T)[sp].d([m5C])[sp].d(T)[sp].d([m5C])[sp].d(T)[sp].[moe]([m5C])p.[moe](T)p.[moe]([m5C])[sp].[moe](T)}$$$$ (last 3' nucleoside missing)”: 0 score 0-7; for “RNA1{[moe]([m5C])[sp].[moe](T)p.[moe](A)p.[moe](T)p.[moe](G)p.d(T)[sp].d(T)[sp].d(T)[sp].d(T)[sp].d([m5C])[sp].d([m5C])[sp].d(A)[sp].d(G)[sp].d(T)[sp].[moe](G)p.[moe]([m5C])p.[moe]([m5C])[sp].[moe]([m5C])}$$$$ (last 3' nucleoside missing)”: 1 score 0-7.

Take “RNA1{[moe](T)[sp].[moe]([m5C])p.[moe](A)p.[moe](T)p.[moe]([m5C])[sp].d(A)[sp].d(T)[sp].d(T)[sp].d(T)[sp].d(T)[sp].d(G)[sp].d([m5C])[sp].d([m5C])[sp].d(A)[sp].d(T)[sp].[moe](T)p.[moe](T)p.[moe](A)[sp].[moe](T)}$$$$ (last 3' nucleoside missing)”: the 3 h FOB score was 6 score 0-7. Substance “RNA1{[moe](G)[sp].[moe](T)p.[moe](A)p.[moe](T)p.[moe]([m5C])[sp].d(A)[sp].d(T)[sp].d(G)[sp].d(T)[sp].d(G)[sp].d(G)[sp].d([m5C])[sp].d([m5C])[sp].d(T)[sp].d([m5C])[sp].[moe]([m5C])p.[moe](T)p.[moe](A)[sp].[moe](A)}$$$$ (last 3' nucleoside missing)” yielded a 3 h FOB score of 5.5 score 0-7.

With “RNA1{[moe](G)[sp].[moe]([m5C])p.[moe](T)p.[moe](A)p.[moe](G)[sp].d(G)[sp].d(T)[sp].d(G)[sp].d(A)[sp].d([m5C])[sp].d(A)[sp].d(A)[sp].d(T)[sp].d(A)[sp].d(T)[sp].[moe]([m5C])p.[moe](A)p.[moe](A)[sp].[moe](A)}$$$$ (last 3' nucleoside missing)”, the 3 h FOB score was 0 score 0-7.

“RNA1{[moe]([m5C])[sp].[moe]([m5C])p.[moe](T)p.[moe](G)p.[moe](T)[sp].d(T)[sp].d(A)[sp].d(A)[sp].d(T)[sp].d(G)[sp].d(G)[sp].d(T)[sp].d(G)[sp].d(T)[sp].d([m5C])[sp].[moe]([m5C])p.[moe](A)p.[moe]([m5C])[sp].[moe](T)}$$$$ (last 3' nucleoside missing)” had a 3 h FOB score of 2.5 score 0-7.

For the substance “RNA1{[moe]([m5C])[sp].[moe](A)p.[moe]([m5C])p.[moe](A)p.[moe]([m5C])p.d(T)[sp].d(G)[sp].d(A)[sp].d([m5C])[sp].d([m5C])[sp].d(A)[sp].d(T)[sp].d(T)[sp].d(T)[sp].[moe](T)p.[moe](T)p.[moe](T)[sp].[moe](A)}$$$$ (last 3' nucleoside missing)”, the 3 h FOB score was 0 score 0-7.

“RNA1{[moe](A)[sp].[moe](T)p.[moe](T)p.[moe](T)p.[moe](A)[sp].d(G)[sp].d(G)[sp].d([m5C])[sp].d(T)[sp].d([m5C])[sp].d(T)[sp].d(T)[sp].d(T)[sp].d(T)[sp].d([m5C])[sp].[moe]([m5C])p.[moe](A)p.[moe](G)[sp].[moe](G)}$$$$ (last 3' nucleoside missing)” displayed a 3 h FOB score of 4.75 score 0-7. Consider “RNA1{[moe](A)[sp].[moe](G)p.[moe]([m5C])p.[moe](A)p.[moe]([m5C])[sp].d(A)[sp].d(G)[sp].d(G)[sp].d([m5C])[sp].d(T)[sp].d(A)[sp].d(T)[sp].d([m5C])[sp].d(T)[sp].d(T)[sp].[moe](T)p.[moe]([m5C])p.[moe](T)[sp].[moe](A)}$$$$ (last 3' nucleoside missing)”, for which the 3 h FOB score came to 5 score 0-7. “RNA1{[moe]([m5C])[sp].[moe](T)p.[moe]([m5C])p.[moe](T)p.[moe](A)p.[moe](T)p.d(G)[sp].d(T)[sp].d(T)[sp].d(T)[sp].d(T)[sp].d([m5C])[sp].d([m5C])[sp].d(A)[sp].d(G)[sp].d(T)[sp].[moe](G)p.[moe]([m5C])[sp].[moe]([m5C])}$$$$ (last 3' nucleoside missing)” displayed a 3 h FOB score of 2 score 0-7. Next, “RNA1{[moe]([m5C])[sp].[moe](T)[sp].[moe](A)p.[moe](T)p.[moe](G)p.[moe](T)p.[moe](T)p.d(T)[sp].d(T)[sp].d([m5C])[sp].d([m5C])[sp].d(A)[sp].d(G)[sp].d(T)[sp].d(G)[sp].d([m5C])[sp].d([m5C])[sp].[moe]([m5C])p.[moe](A)}$$$$ (last 3' nucleoside missing)”: 4.75 score 0-7.
